From US4435404A, “Carbostyril derivatives” (priority 1980, dated 1984)
Read-outs that look alike come from different tables or passages of the source.

Columns and labels:
[1] = target: T1, cyclic AMP phosphodiesterase (Oryctolagus cuniculus, UniProt G1ST54); test: Obstructive action against cyclic AMP phosphodiesterase; type: biochemical; conditions: rabbit platelet enzyme, 30° C., 20 minutes
T1 construct: the supernatant was collected to use it as a crude enzyme solution; from tissue; host or cells: rabbit platelets (from platelet-rich plasma)
T1 sequence (G1ST54 1-1128): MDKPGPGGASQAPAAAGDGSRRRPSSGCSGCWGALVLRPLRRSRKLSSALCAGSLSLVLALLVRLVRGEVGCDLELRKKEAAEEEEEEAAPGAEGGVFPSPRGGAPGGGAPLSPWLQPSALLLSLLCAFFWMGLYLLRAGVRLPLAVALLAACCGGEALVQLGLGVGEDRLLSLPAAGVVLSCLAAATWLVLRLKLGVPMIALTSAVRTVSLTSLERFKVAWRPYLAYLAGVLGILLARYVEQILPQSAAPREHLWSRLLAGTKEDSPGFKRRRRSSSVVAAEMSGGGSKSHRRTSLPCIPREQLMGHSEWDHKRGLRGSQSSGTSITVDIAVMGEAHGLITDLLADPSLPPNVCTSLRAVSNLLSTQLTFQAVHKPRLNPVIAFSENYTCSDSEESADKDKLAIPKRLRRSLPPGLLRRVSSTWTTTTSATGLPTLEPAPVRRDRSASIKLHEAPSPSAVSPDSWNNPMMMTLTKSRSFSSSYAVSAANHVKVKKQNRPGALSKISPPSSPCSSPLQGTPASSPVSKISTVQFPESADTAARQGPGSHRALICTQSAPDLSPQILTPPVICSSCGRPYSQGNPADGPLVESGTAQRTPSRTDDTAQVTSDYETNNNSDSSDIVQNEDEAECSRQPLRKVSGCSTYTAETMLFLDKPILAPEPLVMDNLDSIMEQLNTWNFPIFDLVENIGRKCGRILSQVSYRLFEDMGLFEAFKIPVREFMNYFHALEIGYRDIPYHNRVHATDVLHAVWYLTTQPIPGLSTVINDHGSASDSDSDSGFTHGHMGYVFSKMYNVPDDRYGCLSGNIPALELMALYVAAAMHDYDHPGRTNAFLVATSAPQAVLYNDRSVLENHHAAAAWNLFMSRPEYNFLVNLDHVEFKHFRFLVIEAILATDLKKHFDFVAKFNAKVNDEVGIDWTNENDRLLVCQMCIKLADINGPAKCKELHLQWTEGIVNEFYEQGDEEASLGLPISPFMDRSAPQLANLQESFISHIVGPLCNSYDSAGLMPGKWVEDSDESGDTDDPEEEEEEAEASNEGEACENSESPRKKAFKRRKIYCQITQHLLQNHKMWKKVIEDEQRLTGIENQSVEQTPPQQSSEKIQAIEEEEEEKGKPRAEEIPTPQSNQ
Protocol: That is, for determining the obstructive activity against cyclic AMP phosphodiesterase, 10 ml of a solution obtained by adding 1 mmol of MgCl2 into 50 mmol of tris-hydrochloric acid buffer with pH 7.4 was added to the platelets obtained by further centrifuging the above-said rabbit PRP at 3,000 r.p.m. for 10 minutes, and the suspended platelets were ground by a Teflon potter type homogenizer. This was followed by two times of freezing and thawing treatment and 300-second fracturing with 200 watt supersonic waves. After additional 60-minute centrifugation with 100,000 G, the supernatant was collected to use it as a crude enzyme solution.
10 Milliliters of this crude buffer solution was added to a 1.5×20 cm DEAE-cellulose column which has previously been buffered with 50 mM of tris-acetate buffer (pH 6.0), followed by washing and elution with 30 ml of 50 mM tris-acetate buffer, and this buffer solution was subjected to linear gradient elution with 0 to 0.5 moles of sodium acetate-tris-acetatebuffer (total amount of elute was 300 ml.). The flow rate was 0.5 ml/min, and 5 ml of each fraction was batched out. […] This fraction was used as cyclic AMP phosphodiesterase.
0.1 Milliliter of an aqueous solution of each test compound of a specified concentration was mixed with 40 mmol of tris-hydrochloric acid buffer (pH 8.0, containing 50 μg of cow serum albumin and 4 mmol of MgCl2) containing predetermined 1.0 μmol of cyclic AMP (tritium cyclic AMP), and 0.2 ml of this mixed solution was used as substrate solution.
0.2 Milliliter of the above-prepared cyclic AMP phosphodiesterase of a predetermined concentration was added to said substrate solution and the mixture was reacted at 30° C. for 20 minutes, producing tritium 5'-AMP from the tritium cyclic AMP.
The reaction system was then immersed in boiling water for 2 minutes to stop the reaction, and then this reaction solution was cooled in ice water and, for converting the produced tritium 5'-AMP into tritium adenosine, the solution was added with 0.05 ml (1 mg/ml) of snake poison as 5'-nucleotidase and reacted at 30° C. for 10 minutes. The whole amount of this reaction solution was then added to a cation exchange resin (AG 500 W×4, 200-400 meshes, manufactured by Bio-Rad Co., column size: 0.5×1.5 cm), and the produced tritium anodesine alone was allowed to combine, washed with 6 ml of distilled water and eluted with 1.5 ml of 3 N-ammonia water. The whole quantity of the elutant was added with 10 ml of a triton-toluene type scintillator and the produced tritium adenosine was measured by a liquid scintillation counter to determine the phosphodiesterase activity.
In this way, the phosphodiesterase activation value (Vs) of the test compounds of the respective concentrations was determined, and the phosphodiesterase obstruction rate (%) was determined from said activation value (Vs) and control value (Vc) (obtained from water not containing any test compound) from the following formula: [formula] Known 1-methyl-3-isobutylxanthine was used as control.

Acute Toxicity Test = conditions: mouse, in vivo; male mice, oral administration
Protocol: The test compounds were administered orally to the mice and LD50 (mg/kg) of the compounds was determined.

[2] = tested on: ADP-induced aggregation in rabbit platelet; test: Inhibition effect on ADP-induced aggregation in rabbit platelet; type: cell-based; conditions: Oryctolagus cuniculus, Platelet; for inhibition at 100 µM: concentration of the test compound solution 10^-4 mole
Protocol: (§1) The platelet aggregation inhibitory effect is measured by using AG-II aggregometer (manufactured by Bryston Manufacturing Co.). The blood sample used for the test is a 1/9 (by volume) mixture of sodium citrate and whole blood collected from rabbit. Said sample is subjected to 10-minute centrifugal separation at 1,000 r.p.m. to obtain a platelet rich plasma (PRP). The thus obtained PRP is separated, and the remaining blood sample is further subjected to 15-minute centrifugal separation at 3,000 r.p.m. to obtain a platelet poor plasma (PPP).
(§2) The number of platelets in the PRP is counted by the Brecher-Clonkite Method, and the PRP is diluted with the PPP to prepare a PRP sample with platelet concentration of 300,000/mm^3 for the adenosine diphosphate (ADP)-induced aggregation test. There is also prepared a PRP sample with platelet concentration of 450,000/mm^3 for the collagen-induced aggregation test.
(§3) 0.6 Milliliter of said PRP sample is added into 0.01 ml of a solution of a test compound of a predetermined concentration and the mixture is placed in a 37° C. thermostat for one minute. Then 0.07 ml of an ADP or collagen solution is added to the mixture. Transmittance of this mixture is determined and the change of transmittance is recorded by using the aggregometer at stirrer speed of 1,100 r.p.m. […] The ADP solution is adjusted to a concentration of 7.5×10^-5 M, and the collagen solution is prepared by triturating 100 mg of collagen with 5 ml of said buffer and the supernatant is used as collagen inducer. Acetylsalicylic acid is used as control for the ADP-induced aggregation test and the collagen-induced aggregation test, respectively. The platelet aggregation inhibitory effect is measured in terms of percent inhibition with respect to the aggregation rate of the controls. The aggregation rate is calculated from the following formula:
(§4) Aggregation rate=[(c-a)/(b-a)]×100
(§5) b: transmittance of PRP containing a test compound and an aggregation inducer

Wistar strain male rats = test: Test of increasing effect of heart rate; type: in vivo, rat; conditions: 30 mg/kg oral, 60 minutes after the administration
Protocol: Wistar strain male rats, having 180-230 g of body weight, were abstained from food for 24 hours, the electrocardiograms introduced from the second induction period were recorded on oscillograph. The heart rate was calculated from the electrocardiograms by observing them for 10 seconds several times. […] 60 Minutes after the administration, the heart rate was measured and increasing effect of the heart rate was calculated. Generally, an average heart rate of an usual Wistar strain male rat is about 320 beat/minute.

[3] = tested on: collagen-induced aggregation in rabbit platelet; test: Inhibition effect on collagen-induced aggregation in rabbit platelet; type: cell-based; conditions: Oryctolagus cuniculus, Platelet, read-out: Inhibition effect on collagen-induced aggregation
Protocol: as §1, §2, §3, §4, §5

[4] = concentration of the test compound solution 10^-5 mole, read-out: Inhibition effect on ADP-induced aggregation
[5] = concentration of the test compound solution 10^-6 mole, read-out: Inhibition effect on ADP-induced aggregation
[6] = concentration of the test compound solution 10^-5 mole
[7] = concentration of the test compound solution 10^-6 mole
[8] = read-out: Inhibition effect on ADP-induced aggregation

Row | SMILES | IC50 [1] | LD50 (Acute Toxicity Test) | inhibition at 100 µM [2] | inhibition at 10 µM [2, 4] | inhibition at 1 µM [2, 5] | Increasing effect of heart rate (Wistar strain male rats) | inhibition at 10 µM [3, 6] | inhibition at 1 µM [3, 7] | inhibition at 0.1 µM [2, 8] | inhibition at 1 µM [2, 8] | inhibition at 10 µM [2, 8] | inhibition at 0.1 µM [3] | inhibition at 1 µM [3] | inhibition at 10 µM [3]
1 | CN(CC1CCCCO1)C(=O)CCCOc1ccc2[nH]c(=O)ccc2c1 (stereo not drawn) [No. 6, 6-{3-[N-Methyl-N-(2-tetrahydropyranylmethyl)aminocarbonyl]propoxy}carbostyril] | 52 nM | > 1000 mg/kg | 75% | 24.6% | 14.7% | 40 Beat/min. | 48.1% | 3.8% | – | – | – | – | – | –
2 | CN(C(=O)CCCOc1ccc2[nH]c(=O)ccc2c1)C1CCCCC1 [No. 39, 6-[3-(N--Methyl-N--cyclohexylaminocarbonyl)-propoxy]carbostyril, reference compound] | 16 nM | – | – | – | – | 104 Beat/min. | – | – | 32.8% | 62.1% | 91.7% | 57% | 90.2% | 90.5%
3 | O=C(CCCOc1ccc2[nH]c(=O)ccc2c1)N1CCN(c2ccccc2)CC1 [No. 14, 6-[3-(4-Phenyl-1-piperazinylcarbonyl)propoxy]carbostyril] | 52 nM | > 1000 mg/kg | 100% | 87.7% | 15.7% | 32 Beat/min. | 100% | 31% | – | – | – | – | – | –
